{"source": "patent US7138242B2", "about": "“Olfactory receptor expression libraries and methods of making and using them” (Johns Hopkins University, priority 1998, dated 2006)", "key": {"[1]": {"tested_on": "mouse olfactory receptor TM II–VII chimeric receptor library (pools of clones)", "assay": "Ca2+ imaging screen of 80 library chimeric receptors (10 pools of eight constructs) against 26 odorants in HEK-293 cells with Gα15,16", "assay_type": "cell-based", "settings": "for response of a library receptor: micromolar concentrations, three receptors, respectively", "method": "(§1) HEK-293 cells (obtained from the ATCC) were grown in DMEM supplemented with 10% fetal bovine serum, penicillin (100 U/ml), streptomycin (100 μg/ml) and L-glutamine (2 mM) in 5% CO2. Before transfection, the cells were seeded onto poly-L-lysine-coated 10.5×35×0.17 mm glass coverslips (Bellco) placed in the 60 mm culture dishes. Calcium phosphate-mediated transfections were performed in a 60 mm dish with 3 to 4 μg of receptor construct DNA, 1 μg of pCIS Gα 15 and Gα16 expression vector (Offermanns (1995) supra). 2 μg of pBluescript carrier DNA, and 0.3 μg of pRSV-T antigen expression vector (Gorman (1990) DNA and Protein Eng. Tech. 2:3–9). After 5 to 7 hr incubation, the cells were washed once with PBS containing 0.5 mM EDTA and 10% DMSO, then with PBS before continuing growth in regular media for 40–50 hr.\n(§2) These transfected cells were then tested for their ability to functionally respond to ligand-receptor binding. The ligand, the adrenergic agonist isoproterenol, was “bath” applied to the transfected cells and single cell Ca^2+-imaging was performed. Cells were pre-loaded with the Ca^2+-sensitive fluorescent dye FURA-2 AM (Molecular Probes) by bathing in serum-free DMEM containing 4 μM of the membrane permeant chemical for 1 hr at 37° C., then washed with a standard bath solution (130 mM NaCl, 2 mM CaCl2, 5 mM KCl, 10 mM glucose, 10 mM Na.HEPES/pH 7.4 at room temperature). For each experiment, a glass coverslip with FURA-2 loaded HEK 293 cells was introduced into an open-topped, longitudinal microperfusion chamber (300 μl bath volume mounted on a Zeiss Axiovert 135 microscope equipped with an F Fluar 40×/1.30 oil-immersion lens. The cells were superfused with test solutions typically for 30 to 40 seconds (5 ml/application) and washed out with 5 ml of bath solution at the end of each application. Each test solution was freshly diluted and manually applied with a micropipette into the chamber. Because of this manual procedure, there could be several seconds of delay in actual application from electronic tick marks used to define the beginning of application in each graph. At the same time, the solution flow might not be completely laminar. In most cases, the onset of Ca2+ rise in response to a specific solution occurred within 15 seconds of the beginning of solution application, though longer delays were sometimes observed. Acetylcholine was applied at the end of each experiment at 10 μM for 15–20 seconds. Ratiometric Ca^2+ measurements were performed as described by Grynkiewicz (1985) 260:3440–3450, with modifications using the Zeiss/Attofluor-Ratiovision imaging system. At 5-second intervals, the cells were sequentially illuminated for less than 100 ms, first at 340 nm and then at 380 nm. Fluorescence emission at 510 nm was monitored for each excitation wavelength via an intensified CCD camera. Averaged pixel intensities within 40 to 100 regions of interest, corresponding to 40 to 100 individual cells, were digitized and stored on a computer. Attofluor-Ratiovision software (Atto Instruments) was used to determine the Ca^2+-dependent fluorescence signal expressed as the F340/F380 ratio.\nThe 7-transmembrane domain region TM II–VII expressing vector libraries of the invention were expressed in this cell expression system. Various odorant were screened for their ability to generate a physiologic response in the form of a calcium transient, as above. Eighty plasmid clones arrayed in microtiter plates were pooled into 10 groups of eight constructs each, and co-transfected with Gα15,16 into HEK-293 cells. […]"}, "[2]": {"tested_on": "I-D3 chimeric olfactory receptor", "assay": "Ca2+ imaging, individual clone I-D3 in HEK-293 cells with Gα15,16", "assay_type": "cell-based, mouse", "method": "These transfected cells were then tested for their ability to functionally respond to ligand-receptor binding. The ligand, the adrenergic agonist isoproterenol, was “bath” applied to the transfected cells and single cell Ca^2+-imaging was performed. Cells were pre-loaded with the Ca^2+-sensitive fluorescent dye FURA-2 AM (Molecular Probes) by bathing in serum-free DMEM containing 4 μM of the membrane permeant chemical for 1 hr at 37° C., then washed with a standard bath solution (130 mM NaCl, 2 mM CaCl2, 5 mM KCl, 10 mM glucose, 10 mM Na.HEPES/pH 7.4 at room temperature). […] Fluorescence emission at 510 nm was monitored for each excitation wavelength via an intensified CCD camera. […] Attofluor-Ratiovision software (Atto Instruments) was used to determine the Ca^2+-dependent fluorescence signal expressed as the F340/F380 ratio. […]"}, "[3]": {"tested_on": "full-length I-C6 receptor fused to translocation domain (rhodopsin tag)", "assay": "Ca2+ imaging, full-length I-C6 receptor with rhodopsin tag in HEK-293 cells", "assay_type": "cell-based, mouse", "method": "PCR products were digested with PstI and BspEI restriction enzymes before size fractionation, purification and ligation into the pCMV-Rho/M4NC vector (see FIG. 1A). The vector ligation products were transformed into E. coli and 480 clones were placed in 96-well plates. […] Pools of cells from a single column of the plates (8 wells) were grown in a 50 ml culture and plasmid DNA prepared. Insert-containing vectors containing: the 5′-untranslated region of the rhodopsin gene, which included its coding region for the initiation methionine and the next 19 residues; joined to a full-length cDNA for a mouse olfactory receptor (M4 or I-C6), under the control of the CMV promoter, were also prepared. The full-length coding region of olfactory receptors mI7 and I-C6 were obtained by screening a mouse (129 SV/J) genomic phage (λFIX-II) library (2×10^6 independent clones) using ^32P-labeled DNA fragments (of TMII through VII sequence) of the respective receptors under stringent conditions (hybridized at 0.2×SSC at 65° C.). DNA fragments encoding the full-length receptors were cloned into pBluescript (Stratagene) and sequenced.\nas §2\nTo determine if these physiologic responses were caused by ligand interaction with a full-length 7-membrane receptor, a genomic clone of the entire I-C6 receptor coding sequence was isolated and used to make a chimeric molecule incorporating the tranlocation domain of the invention (the “rhodopsin tag” sequence). The full-length I-C6 receptor retained the same stereo-selectivity as a chimeric receptor construct whose only I-C6 sequence was the transmembrane domains II through VII (i.e., the odorant/ligand binding domain). […]"}, "[4]": {"tested_on": "endogenous β-adrenergic receptors", "assay": "Single-cell FURA-2 Ca2+ imaging, HEK-293 cells transfected with the G protein subunits (Gα15,16) alone", "assay_type": "cell-based, human", "settings": "no receptor construct", "method": "as §1\nThese transfected cells were then tested for their ability to functionally respond to ligand-receptor binding. The ligand, the adrenergic agonist isoproterenol, was “bath” applied to the transfected cells and single cell Ca^2+-imaging was performed. […] Fluorescence emission at 510 nm was monitored for each excitation wavelength via an intensified CCD camera. […] Attofluor-Ratiovision software (Atto Instruments) was used to determine the Ca^2+-dependent fluorescence signal expressed as the F340/F380 ratio. […]"}, "[5]": {"tested_on": "Rho/M4NC-β2 TM II–VII (TM II–VII region from the β2-adrenergic receptor in pCMV-Rho/M4NC)", "assay": "Single-cell FURA-2 Ca2+ imaging, HEK-293 cells co-transfected with Rho/M4NC-β2 TM II–VII and Gα15,16", "assay_type": "cell-based, human", "method": "HEK-293 cells (obtained from the ATCC) were grown in DMEM supplemented with 10% fetal bovine serum, penicillin (100 U/ml), streptomycin (100 μg/ml) and L-glutamine (2 mM) in 5% CO2. […] After 5 to 7 hr incubation, the cells were washed once with PBS containing 0.5 mM EDTA and 10% DMSO, then with PBS before continuing growth in regular media for 40–50 hr.\nEfficient screening of expressed olfactory receptors with a large number of ligands by functional analysis requires a robust and sensitive assay system. […] In this reporter system, (olfactory) receptor activation leads to the generation of an IP3-mediated increase in intracellular Ca^2+, which can be measured at the single-cell level with high sensitivity and good temporal resolution using the dye FURA-2 and radiofluorometric imaging.\nA construct with the TM II–VII region from the β2-adrenergic receptor inserted in the pCMV-Rho/M4NC vector (Rho/M4NC-β2 TM II–VII) was co-transfected with Gα15,16 into HEK-293 cells. […] Images of fluorescent cells were obtained on a Zeiss 510 confocal microscope with excitation at 488 nm.\nThese transfected cells were then tested for their ability to functionally respond to ligand-receptor binding. The ligand, the adrenergic agonist isoproterenol, was “bath” applied to the transfected cells and single cell Ca^2+-imaging was performed. Cells were pre-loaded with the Ca^2+-sensitive fluorescent dye FURA-2 AM (Molecular Probes) by bathing in serum-free DMEM containing 4 μM of the membrane permeant chemical for 1 hr at 37° C., then washed with a standard bath solution (130 mM NaCl, 2 mM CaCl2, 5 mM KCl, 10 mM glucose, 10 mM Na.HEPES/pH 7.4 at room temperature). […] Acetylcholine was applied at the end of each experiment at 10 μM for 15–20 seconds. […] At 5-second intervals, the cells were sequentially illuminated for less than 100 ms, first at 340 nm and then at 380 nm. Fluorescence emission at 510 nm was monitored for each excitation wavelength via an intensified CCD camera. Averaged pixel intensities within 40 to 100 regions of interest, corresponding to 40 to 100 individual cells, were digitized and stored on a computer. Attofluor-Ratiovision software (Atto Instruments) was used to determine the Ca^2+-dependent fluorescence signal expressed as the F340/F380 ratio."}, "[6]": {"tested_on": "I-G7 chimeric olfactory receptor", "assay": "Ca2+ imaging, individual clone I-G7 in HEK-293 cells with Gα15,16", "assay_type": "cell-based, mouse", "settings": "10 μM", "method": "These transfected cells were then tested for their ability to functionally respond to ligand-receptor binding. The ligand, the adrenergic agonist isoproterenol, was “bath” applied to the transfected cells and single cell Ca^2+-imaging was performed. Cells were pre-loaded with the Ca^2+-sensitive fluorescent dye FURA-2 AM (Molecular Probes) by bathing in serum-free DMEM containing 4 μM of the membrane permeant chemical for 1 hr at 37° C., then washed with a standard bath solution (130 mM NaCl, 2 mM CaCl2, 5 mM KCl, 10 mM glucose, 10 mM Na.HEPES/pH 7.4 at room temperature). For each experiment, a glass coverslip with FURA-2 loaded HEK 293 cells was introduced into an open-topped, longitudinal microperfusion chamber (300 μl bath volume mounted on a Zeiss Axiovert 135 microscope equipped with an F Fluar 40×/1.30 oil-immersion lens. The cells were superfused with test solutions typically for 30 to 40 seconds (5 ml/application) and washed out with 5 ml of bath solution at the end of each application. Each test solution was freshly diluted and manually applied with a micropipette into the chamber. Because of this manual procedure, there could be several seconds of delay in actual application from electronic tick marks used to define the beginning of application in each graph. At the same time, the solution flow might not be completely laminar. In most cases, the onset of Ca2+ rise in response to a specific solution occurred within 15 seconds of the beginning of solution application, though longer delays were sometimes observed. Acetylcholine was applied at the end of each experiment at 10 μM for 15–20 seconds. Ratiometric Ca^2+ measurements were performed as described by Grynkiewicz (1985) 260:3440–3450, with modifications using the Zeiss/Attofluor-Ratiovision imaging system. […] Fluorescence emission at 510 nm was monitored for each excitation wavelength via an intensified CCD camera. […] Attofluor-Ratiovision software (Atto Instruments) was used to determine the Ca^2+-dependent fluorescence signal expressed as the F340/F380 ratio. […]"}}, "data": [{"molecule": "C=C(C)[C@H]1CC=C(C)C(=O)C1", "note": "[(+) carvone]", "values": [{"measurement": "intracellular Ca2+ response of a clone pool", "setting": "[1]; 10 μM, odorants applied sequentially", "result": "lack of response"}, {"measurement": "intracellular Ca2+ response", "setting": "[2]", "result": "responsive"}]}, {"molecule": "CC(C)=CCC/C(C)=C/C=O", "note": "[+/− citral]", "values": [{"measurement": "intracellular Ca2+ response", "setting": "[3]; 30 μM", "result": "only 30 μM (−) citronellyl bromide elicited a small response"}]}, {"molecule": "C=C(C)C1CC=C(C)C(=O)C1", "note": "(centres unmarked) [carvone]", "values": [{"measurement": "response of a library receptor", "setting": "[1]", "result": "responded"}, {"measurement": "intracellular Ca2+ response", "setting": "[3]; 100 μM", "result": "no responses"}]}, {"molecule": "CC(C)NCC(O)c1ccc(O)c(O)c1", "note": "(centres unmarked) [isoproterenol]", "values": [{"measurement": "intracellular Ca2+ response", "setting": "[4]", "result": "small response"}, {"measurement": "intracellular Ca2+ response (FURA-2 F340/F380)", "setting": "[5]; bath application, cells co-transfected with Gα15,16", "result": "transient increase in intracellular Ca^2+"}, {"measurement": "Ca2+ response to a second application", "setting": "[5]; second application (desensitization)", "result": "frequently failed to elicit a response"}, {"measurement": "dependence of the Ca2+ transient on Gα15,16", "setting": "[5]; with vs without cotransfected Gα15,16", "result": "dependent on cotransfection with the Gα15,16 subunits"}]}, {"molecule": "C=C(C)[C@H]1CC=C(C)CC1", "note": "[limonene]", "values": [{"measurement": "response of a library receptor", "setting": "[1]", "result": "responded"}, {"measurement": "intracellular Ca2+ response", "setting": "[3]; 100 μM", "result": "no responses"}]}, {"molecule": "(−) citral demethyl acetal", "values": [{"measurement": "intracellular Ca2+ response", "setting": "[3]; 30 μM", "result": "only 30 μM (−) citronellyl bromide elicited a small response"}]}, {"molecule": "(−) limonene", "values": [{"measurement": "Ca2+ response relative to the (+) isomer", "setting": "[6]", "result": "perhaps not as well"}, {"measurement": "intracellular Ca2+ response", "setting": "[6]", "result": "responded"}]}]}
